The source of these data is PubChem BioAssay AID488881 (Sanford-Burnham Center for Chemical Genomics, 2010).

Calls of active or inactive are those of the source.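 The calls were made as follows: active = mean EC50 below 10 µM; inactive = the rest.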

Sequence of Type-1 angiotensin II receptor (Homo sapiens) (P30556 whole entry, looked up): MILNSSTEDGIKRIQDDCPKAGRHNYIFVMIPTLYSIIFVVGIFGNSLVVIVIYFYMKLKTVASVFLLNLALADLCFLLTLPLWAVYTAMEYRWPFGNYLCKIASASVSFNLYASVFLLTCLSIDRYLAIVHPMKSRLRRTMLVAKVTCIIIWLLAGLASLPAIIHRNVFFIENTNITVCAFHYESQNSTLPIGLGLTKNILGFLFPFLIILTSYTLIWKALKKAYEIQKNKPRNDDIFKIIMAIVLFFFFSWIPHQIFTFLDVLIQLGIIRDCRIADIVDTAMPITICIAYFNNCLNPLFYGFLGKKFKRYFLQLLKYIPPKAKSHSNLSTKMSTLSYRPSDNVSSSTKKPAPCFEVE

The experiment concerns the target Type-1 angiotensin II receptor (Homo sapiens) (UniProt P30556). Description: AGTR1 activation selectivity check – cell-based, CHO-K1 PathHunter, luminescence, selectivity assay for APJ agonist project, SAR follow-up (AID 488881). To be noted: CHO-K1 AGTR1 PathHunter beta-arrestin.
With `COc1ccccc1-n1c(SCC(=O)c2ccccc2)nc(O)cc1=O`, the EC50 (as a rule, the concentration that produces a half-maximal response) was > 79 µM (inactive).

For the molecule `CCc1c(O)n(C2CCCCC2)c(=S)[nH]c1=O`, the EC50 was > 79 µM (inactive). For `CC1=CC(=O)C(C(C)C)=C/C1=N/OS(=O)(=O)c1ccccc1`, the EC50 was > 79 µM (inactive).

For the molecule `CC1=CC(=O)C=C(C)C1=NOS(=O)(=O)c1ccccc1`, the EC50 was > 79 µM (inactive). The value for `Cc1ccc(S(=O)(=O)ON=C2C=CC(=O)C=C2)cc1` was > 79 µM (inactive); that for `CSc1nc(=O)cc(N)n1-c1ccc(C)cc1` was > 79 µM (inactive). As to `CN(C)CCSc1nc(O)c(-c2ccccc2)c(=O)n1-c1ccccc1`, the EC50 is > 79 µM (inactive). The value for `CC1=CC(=NOS(=O)(=O)c2ccccc2)C=C(C)C1=O` was > 79 µM (inactive); that for `O=S(=O)(Nc1nc(-c2ccccc2)cs1)c1ccc(Br)cc1` was > 79 µM (inactive).

For `CCCCSc1nc(O)c(CC)c(=O)n1C1CCCCC1`, the EC50 is > 79 µM (inactive). The value for `O=S(=O)(Nc1nc(-c2ccccc2)cs1)c1ccc(Cl)cc1` was > 79 µM (inactive); that for `CC1=CC(=NOS(=O)(=O)c2ccc(Cl)cc2)C=C(C)C1=O` was > 79 µM (inactive); that for `CCc1c(O)nc(SCc2ccccc2)n(C(C)CC)c1=O` (configuration not stated) was > 79 µM (inactive). As to `CCSc1nc(O)c(CC)c(=O)n1C(C)CC` (configuration not stated), the EC50 is > 79 µM (inactive). The value for `C=CCSc1nc(O)c(CC)c(=O)n1C(C)CC` (configuration not stated) was > 79 µM (inactive). The value for `CC1=C/C(=N/OS(=O)(=O)c2ccccc2)C(C)=CC1=O` was > 79 µM (inactive); that for `CCc1c(O)nc(SC)n(C2CCCCC2)c1=O` was > 79 µM (inactive). The value for `CC1=C/C(=N/OS(=O)(=O)c2ccc(C)cc2)C=CC1=O` was > 79 µM (inactive); that for `CCCCSc1nnc(NC(=O)CSc2nc3ncccc3[nH]2)s1` was > 79 µM (inactive); that for `CC1=CC(=NOS(=O)(=O)c2ccccc2)C=CC1=O` was > 79 µM (inactive). With `CC1=CC(=NOS(=O)(=O)c2ccc(C)cc2)C=C(C)C1=O`, the EC50 is > 79 µM (inactive). To `COc1ccc(S(=O)(=O)ON=C2C=C(C)C(=O)C(C)=C2)cc1` belongs > 79 µM (inactive); to `COc1ccc(S(=O)(=O)O/N=C2\C=C(C(C)C)C(=O)C=C2C)cc1`, > 79 µM (inactive). To `CC1=C/C(=N\OS(=O)(=O)c2ccc(C)cc2)C(C)=CC1=O` belongs > 79 µM (inactive); to `CCN1/C(=C\C=C2/SC(=S)N(C)C2=O)Sc2ccccc21`, > 79 µM (inactive). The value for `C=CCn1c(SCc2ccccc2)nc(O)c(CC)c1=O` was > 79 µM (inactive); that for `CCc1c(O)nc(SC)n(C(C)CC)c1=O` (configuration not stated) was > 79 µM (inactive). Take `CC1=C/C(=N/OS(=O)(=O)c2ccc(C)cc2)C(C(C)C)=CC1=O`: the EC50 was > 79 µM (inactive). Take `CC1=C(C)C(=NOS(=O)(=O)c2ccc(C)cc2)C=CC1=O`: the EC50 is > 79 µM (inactive). To `CCc1c(O)nc(SCc2ccccc2)n(C2CCCCC2)c1=O` belongs > 79 µM (inactive); to `CC1=CC(=NOS(=O)(=O)c2ccccc2)C(C(C)C)=CC1=O`, > 79 µM (inactive); to `CCSc1nc(O)c(CC)c(=O)n1C1CCCCC1`, > 79 µM (inactive). Regarding `CCN1/C(=C/C(=O)c2sc(=S)n(CC)c2O)Sc2ccccc21`, the EC50 was > 79 µM (inactive).

As for `C=CCSc1nc(O)c(CC)c(=O)n1-c1ccc(C)cc1`, the EC50 is > 79 µM (inactive).

For `CCc1c(O)nc(SC(C)CC)n(C(C)CC)c1=O` (configuration not stated), the EC50 is > 79 µM (inactive). To `Cc1cc(C)n2nc3nc(N4CCOCC4)nc(-c4ccccc4)c3c2n1` belongs > 79 µM (inactive); to `CC1=C/C(=N\OS(=O)(=O)c2ccc(Cl)cc2)C=CC1=O`, > 79 µM (inactive); to `Cc1ccc(S(=O)(=O)Nc2nc(-c3ccccc3)cs2)cc1`, > 79 µM (inactive). To `CC1=CC(=O)C=C/C1=N\OS(=O)(=O)c1ccc(C)cc1` belongs > 79 µM (inactive); to `C=CCSc1nc(O)c(CC)c(=O)n1C1CCCCC1`, > 79 µM (inactive). The value for `CC1=CC(=O)C(C(C)C)=CC1=NOS(=O)(=O)c1ccccc1` was > 79 µM (inactive); that for `CCCSc1nc(O)c(CC)c(=O)n1C(C)CC` (configuration not stated) was > 79 µM (inactive).
